For series [1], the system named is Mannitol dehydrogenase from Thermotoga maritima (TmMtDH). Put plainly: Cyclic voltammetry of the Gly-TBO-PEI-NADH-TmMtDH-modified electrode with sugar substrates (calibration plot, saturation current, turnover). The series is classed as biochemical. The following applies: substrate tested on Gly-TBO-PEI-NADH-TmMtDH-modified electrode; 100 mM PBS pH 6.0, 60° C. The method, then:
Cyclic voltammetric experiments were conducted by sweeping the potential of the working electrode between 200 mV and −600 mV at a scan rate of 100 mV s^−1, causing fructose in the vicinity of the electrode to be reduced to mannitol in the […] direction and mannitol to be oxidized to fructose in the reverse direction. All electrochemical measurements were made in 100 mM PBS (pH 6.0) at 60° C. using an electrode with a controlled surface area of 0.07 cm^2. The slope of the calibration plot, which depicts peak current vs. concentration, is a measure of the biosensor's sensitivity. The maximum turnover rate (TRmax), which corresponds to the number of fructose molecules reduced per TmMtDH molecule per second, was calculated using Eq. 6 (Eisenwiener and Schulz, 1969):
[formula] where the background current (I0) and saturation current (Icat^sat) are given by the y-intercept of the calibration curve and the plateau current at a given concentration, respectively. Electrochemical Impedance Spectroscopy
The slope of the calibration curve (0.70±0.01 μA) mM^−1 cm^−2) is a measure of the biosensor's sensitivity. At higher concentrations, the anodic current reached a saturation value (Icat^sat=740.9±11.6 μA cm^−2). This value was used to calculate a TRmax, which represents the number of molecules of fructose reduction per TmMtDH molecule per second, of 57.5±2.8 s^−1, using Eq. 6 (Eisenwiener and Schulz, 1969).
The selectivity of the Gly-TBO-PEI-NADH-TmMtDH-modified electrode was examined by testing alternative substrates.

The conditions of series [2]: carboxylic acid group; cited from earlier work.

Results on 5 compounds are retold here after patent US10246786B2, “Renewable bioelectronic interface for electrobiocatalytic reactor” (priority 2009, dated 2019).

With `OC1COC(O)C(O)C1O` (centres unmarked) [Arbinose, arbinose], in series [1], the “Icat^sat” value was determined as 542.8 ± 9.1 μA cm^−2 and the Sensitivity worked out at 0.3 ± 0.0 μA mM^−1 cm^−2.
The corresponding values for `O=C(CO)[C@@H](O)[C@H](O)[C@H](O)CO` [Fructose, D-fructose] are 748.2 ± 11.7 μA cm^−2 and 10.1 ± 0.2 μA mM^−1 cm^−2.
Usually pKa stands for the negative logarithm of the acid dissociation constant. Turning to `NCC(=O)O` [Gly, Glycine], the pKa in series [2] is about 4.3.
As to `O=C(O)CCS` [MPA], in series [2], the pKa was about 4.3.
Take `O=C(CO)[C@H](O)[C@@H](O)[C@H](O)CO` [Sorbose, sorbose]: in series [1], the “Icat^sat” value was 562.4 ± 1.4 μA cm^−2 and the Sensitivity is recorded as 0.4 ± 0.0 μA mM^−1 cm^−2.
